{
  "source": "patent US7005139B2",
  "about": "“Compositions and methods for the targeted delivery of agents to treat liver cancer” (Hong Kong University of Science and Technology, priority 2001, dated 2006)",
  "test_system": "HepG2 tumors",
  "experiment": "Anti-tumor efficacy in HepG2-tumor bearing nude mice",
  "format": "in vivo, nu/nu BALB/c nude mice",
  "conditions": "s.c. HepG2 tumors, i.v. 1 mg/kg dox equivalents every other day from day 2, tumor volume, FIG. 4",
  "experimental": "Nude mice were inoculated s.c. with 4×10^6 HepG2 cells on day 0. On day 2, groups of five mice were injected intravenously with 1 mg/kg dox equivalents of D, DL or DLG. The control group received injections of saline (S). Injections were carried out every other day. The tumor size was measured weekly and the volume calculated using the formula 0.52×L×W×H. Each point represents the mean volume from each group of 5 mice.\nNude mice were inoculated s.c. with 4×10^6 HepG2 cells on day 0. On day 2, groups of five mice were injected intravenously with 1 mg/kg dox equivalents of D, DL or DLG. The control group received injections of saline. Injections were carried out every other day. All mice were sacrificed on day 35. The tumors were removed and weighted. Each column represents the mean ±s.d. (n=5). *p<0.05 statistically significant difference as compared to control (student's t-test).\nNude mice (body weight 20–25 g; 6–8 weeks) were inoculated subcutaneously (s.c.) with a suspension of HepG2 cells (4×10^6/mouse) on Day 0. On Day 2, groups of five mice were injected intravenously with 1 mg/kg equivalents of D, DL or DLG. The Control group received injections of saline. Injections were carried out every other day. Tumor volume was continuously monitored using a Vernier caliper. Measurements were taken weekly and volumes were calculated according to the formula (L×W×H×0.52). […]",
  "data": [
    {"smiles": "COc1cccc2c1C(=O)c1c(O)c3c(c(O)c1C2=O)C[C@@](O)(C(=O)CO)C[C@@H]3O[C@H]1C[C@H](N)[C@H](O)[C@H](C)O1.Cl", "note": "[D, doxorubicin hydrochloride]", "values": [
      {"measurement": "tumor growth inhibition", "result": "about 40%"}
    ]}
  ]
}
